One test concerns neutrophils. Briefly: PGD2-induced neutrophils migration, Boyden chamber assay (Example 1). Format: cell-based, mice. As to conditions: pretreatment CT-NA 1 and 10 μM (p<0.01) or OC459; PGD2 1 μM; 4 hrs. The procedure:
The mice were intragastrically administered glycogen (1.5%) at the dose range of 20 ml/kg of body weight. 4 hrs later, the mice were euthanized to isolate neutrophils from the peritoneal lavage. The effect of CT-NA on neutrophils migration was detected by using the Boyden chamber assay kit (3 μm pore size). PGD2 was used as a chemoattractant because the activated PGD2/CRTH2 receptors promoted the migration of neutrophils. Initially, the isolated neutrophils (4×10^5) were diluted in 100 μL HBSS and allowed to migrate toward PGD2 (0.1, 1 and 10 μM) for 4 hrs to find out the suitable PGD2 concentration. Then, the isolated neutrophils (4×10^5) were pretreated with CT-NA (1 and 10 μM), and their migration to PGD2 (1 μM) was evaluated by counting the migrated neutrophils. Moreover, another potent CRTH2 inhibitor OC459 was used to countercheck the outcomes of CT-NA.

A further test concerns RAW264.7 macrophages. Briefly: In vitro ELISA assay, LPS- or PGD2-stimulated RAW264.7. Format: cell-based, mouse. The conditions noted are these: CT-NA 10 and 100 μM, dose-dependent. On the procedure: For ELISA and RT-PCR, RAW 264.7 macrophages were acclimated to two 12-well plates at 70-80% confluence. Thereafter, the medium in the 12-well plate was replaced with serum-free RPMI-1640 medium for 10-12 hrs and then exposed to CT-NA (10 and 100 μM) for 1 hour. One hour later, one 12-well plate was treated with LPS (100 ng/ml) for 24 hrs, and the other was treated with PGD2 (10 μM) for 24 hrs. After the treatment, the supernatant of the treated cells was collected to measure the protein levels of TNF-α, IL-1β, IL-6, and KC using ELISA kits according to the method of the instructions. Subsequently, RNA samples from each treated plate were extracted and reverse-transcripted into cDNA with HiScript5xQRTSuperMix, and then subjected to RT-PCR using BioRad CFX96 Touch™ real-time PCR detection system (San Diego, Calif.). Similarly, total RNAs extracted from treated isolated peritoneal macrophages were subjected to analyze the mRNA levels of IL-10, TNF-α, IL-6 and KC. The primers used in the RT-PCR reaction were shown in Table 2. β-actin was used as an internal control. The RT-PCR reactions were triplicated and the relative expression of target mRNA was normalized by the respective β-actin.
On the technique in general: ELISA stands for enzyme-linked immunosorbent assay.

A further test deals with CS-induced ALI mice. Briefly: CS-induced lung injury model: pulmonary histopathology (H&E). It is filed as in vivo, Balb/c mice. The procedure:
Model preparation: The mice were randomly divided into 5 groups (12 mice in each group), which were the control group (the mice were exposed to fresh air), the saline group (the mice were exposed to cigarette smoke), dexamethasone (Dex) group (1 mg/kg) (the mice were exposed to cigarette smoke), CT-NA 10 mg/kg group and CT-NA 30 mg/kg group (the mice were exposed to cigarette smoke). According to the grouping, the mice were intragastrically administered saline, Dex and CT-NA, respectively. Thereafter, the mice were exposed to fresh air or cigarette smoke generated from 3R4F research-grade cigarettes (containing about 600 mg TPM/m^3 and 29.9 mg nicotine/m^3) in a cuboid plastic box (65×50x×45 cm). Ten cigarettes were burned every day for seven days. After one cigarette was burned, the next cigarette was ignited. The daily body weight and general condition of the mice were checked. 24 hrs after the last exposure to the cigarette smoke, the partial pressure of oxygen (PO2) of all mice was measured by the Moor VMS-OXY™ measuring instrument, which was used to measure the oxygenated/deoxygenated hemoglobin concentration and oxygen saturation (percentage) in the microcirculation at the wavelength range of 500 to 650 nm. Then, all mice were euthanized to collect bronchoalveolar lavage fluid (BALF) for measuring the total number of inflammatory cells, cytokine levels and albumin concentration. […]

The test system of test [1] is isolated peritoneal macrophages. As to the kind of experiment: RT-PCR analysis, LPS- or PGD2-stimulated peritoneal macrophages. Format: cell-based, mice. The conditions noted are these: CT-NA 10 and 100 μM, P<0.05 or P<0.01. On the procedure:
The method was briefly described as follows. Thioglycolate (4%) was intraperitoneally injected to mice at a dose of 20 ml/kg of body weight for three consecutive days. 48 h after the last thioglycolate injection (on day 5), the peritoneal macrophages were isolated from the peritoneal lavage of the euthanized mice. The isolated peritoneal macrophages were added to a 12-well plate (4×10^5/well) and cultured at 37° C. Non-adherent cells were removed by gently washing three times with warm PBS. At this time, more than 90% of the cells were macrophages, which were cultured in DMEM/high glucose medium containing penicillin (100 U/ml), streptomycin (100 μg/ml) and 10% FBS at 37° C. After acclimation, serum-free DMEM/high glucose was added to a 12-well plate for 10-12 hrs, and then treated with different concentrations of LPS ([…]) for 24 hrs. Afterward, the supernatant of the peritoneal macrophages was collected to measure the protein level of PGD2 using ELISA kits according to the method of the instructions.
For ELISA and RT-PCR, RAW 264.7 macrophages were acclimated to two 12-well plates at 70-80% confluence. Thereafter, the medium in the 12-well plate was replaced with serum-free RPMI-1640 medium for 10-12 hrs and then exposed to CT-NA (10 and 100 μM) for 1 hour. […]

In the case of `CN([C@@H]1CCc2c(CC(=O)[O-])c3cccnc3n2C1)S(=O)(=O)c1ccc(F)cc1.[Na+]` [Sodium salt hydrate], the PGD2-induced neutrophils migration result in the test with neutrophils was “significantly attenuated”. Further, the “protein expression of IL-1β, TNF-α, IL-6 and KC in response to LPS” value in the test with RAW264.7 macrophages (LPS (100 ng/ml) 24 hrs) is given as “inhibited”. The “protein expression of IL-1β, TNF-α, IL-6 and KC in response to PGD2” value with RAW264.7 macrophages (PGD2 (10 μM) 24 hrs) is given as “inhibited”. Moreover, the mean pathological scores entry with CS-induced ALI mice (CT-NA 10 and 30 mg/kg, Dex 1 mg/kg, 5-point scoring, dose-dependent, p<0.01) is given as “considerably reduced”. For the same compound, the “CS-induced pulmonary histopathological changes” value with CS-induced ALI mice (pretreatment with CT-NA 10 and 30 mg/kg or Dex 1 mg/kg, H&E) is given as “strikingly improved”. Also, the “mRNA expressions of IL-1β, TNF-α, IL-6 and KC, LPS-stimulated” value in test [1] (LPS, dose-dependent) is given as “reduced”. Moreover, the “mRNA expressions of IL-1β, TNF-α, IL-6 and KC, PGD2-stimulated” value in test [1] (PGD2, dose-dependent) is on record as “reduced”.
